Drawing on PubChem BioAssay AID463206 (Broad Institute, 2010), this text covers AC50 for 85 molecules.

The structures appear in SMILES notation. Calls of active or inactive are those of the source.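 The calls were made as follows: active = caspase luminescence falls with dose and the half-maximal concentration AC50 from the fitted curve is at or below a set limit; inconclusive = flat fit at 30 to 70% signal loss, or invalid fit; inactive = AC50 above the limit, or signal rises instead.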

This assay deals with INS-1E cytokine-induced caspase-3/7, Caspase-Glo luminescence, 48 h. The assay can be described thus: suppression of cytokine-driven beta-cell apoptosis – INS-1E rat cells, luminescence, orthogonal assay for beta-cell apoptosis protection project, dose response (AID 463206).

Turning to `Cc1c(C(=O)Nc2nc(-c3ccccn3)cs2)oc2ccccc12`, the AC50 is > 26 µM (inactive). With `CC(C)OCCCNc1ncnc2c1[nH]c1ccc(F)cc12`, the AC50 is > 26 µM (inactive). On to `Cc1ccc2nc(NNC(=O)c3ccc(S(=O)(=O)N4CCc5ccccc5C4)cc3)sc2c1`, for which the AC50 is > 26 µM (inactive). On to `COc1ccc(Cn2c(SCc3ccc(C)cc3)nc3cc(OC)c(OC)cc3c2=N)cc1Cl`, for which the AC50 is > 26 µM (inactive). Turning to `C(=C\c1nc(N2CCCCCC2)c2ccccc2n1)/c1ccccc1`, the AC50 is > 26 µM (inactive). The figure for `CN1/C(=C\C(=S)NC(=O)c2cccc(Br)c2)C(C)(C)c2ccccc21` is > 26 µM (inactive). The figure for `CCCCCCCCCCOC(=O)Cn1c(COc2ccccc2C)[n+](C)c2ccccc21` is > 26 µM (inactive); for `CC1Cc2cc(S(=O)(=O)N3CCC(C(=O)N4CCN(c5ccccc5F)CC4)CC3)ccc2N1C(=O)C1CC1` (stereo not given) it is > 26 µM (inactive); for `Cc1cccc(CNc2ccc(S(=O)(=O)N3CCCCC3)cc2)c1` it is > 26 µM (inactive).

With `COc1ccc(C(=O)N/N=C/c2sc3ccccc3c2O)cc1`, the AC50 was > 26 µM (inactive). The figure for `Cc1ccc(Nc2cc(C)nc(NCc3ccccc3)n2)cc1` is > 12 µM (inactive). Turning to `CCn1cc(C(=O)O)c(=O)c2cc(F)c(N/N=C/c3ccccc3[N+](=O)[O-])cc21`, the AC50 is > 12 µM (inactive).

Turning to `CCOc1ccc(CN2CCN(Cc3c[nH]c4ccccc34)CC2)cc1`, the AC50 was > 26 µM (inactive). The figure for `O=C(O)c1ccc(/C=C2\SC(=S)N(Nc3ccccc3)C2=O)cc1` is > 26 µM (inactive); for `C=CCNC(=S)N/N=C(\C)c1ccccn1` it is > 26 µM (inactive); for `CCn1c(SCC(=O)Nc2cc(C)on2)nc2sc3c(c2c1=O)CCCC3` it is > 12 µM (inactive). As to `O=c1c2c3c(sc2n(CCN2CCCCC2)c(=O)n1Cc1ccco1)CCCCC3`, the concentration at half-maximal activity (AC50) was 25.4 µM. The figure for `O=C(CCCc1nc(-c2ccc(Cl)cc2)no1)NC1CCCC1` is > 12 µM (inactive); for `Cc1cc(C(=O)CSc2nc3ccccc3c(=O)n2C)c(C)n1Cc1ccc2c(c1)OCO2` it is > 26 µM (inactive).

For the molecule `CC(=O)c1cccc(N=c2scc(-c3ccc(S(=O)(=O)N4CCOCC4)cc3)n2CCO)c1`, the AC50 is > 26 µM (inactive). Turning to `CCCC1CCC(c2ccc(C(=O)NN)cc2)CC1` (stereo not given), the AC50 is > 12 µM (inactive). Turning to `CC(=O)Oc1c(I)cc(I)cc1C(=O)Nc1ccc(Cl)cc1`, the AC50 is > 26 µM (inactive).

Regarding `CCOc1ccc(S(=O)(=O)NCc2ccncc2)cc1`, the AC50 was > 26 µM (inactive). As for `O=C(Nc1ccc(-c2nc3ccccc3o2)cc1)c1ccc(N2CCOCC2)c([N+](=O)[O-])c1`, the AC50 is > 26 µM (inactive). For `C#CC(=O)N(c1cccc(OC)c1)C(C(=O)NC1CCCC1)c1cccs1` (stereo not given), the AC50 was > 26 µM (inactive). With `O=[N+]([O-])c1ccc(-c2nc3ccc([N+](=O)[O-])cc3[nH]2)cc1`, the AC50 is > 26 µM (inactive). In the case of `Cc1cc(N2CCOCC2)n2ncc(-c3ccccc3)c2n1`, the AC50 was > 26 µM (inactive).

For the molecule `O=C(NC1=C(Nc2ccc(F)cc2)C(=O)c2ccccc2C1=O)c1ccc(Cl)cc1`, the AC50 was > 26 µM (inactive). As for `CCCCC(CC)CN=C(N)NC(N)=NCCCCCCN=C(N)NC(N)=NCC(CC)CCCC` (stereo not given), the AC50 was > 26 µM (inactive). The figure for `O=C(C#Cc1ccccc1)c1ccco1` is > 26 µM (inactive); for `CN(Cc1ccccc1)C(=O)c1nc2ccccn2c1CN1CCCC1c1nccs1` (stereo not given) it is > 26 µM (inactive); for `COc1ncnc(OC)c1S(=O)(=O)Nc1ccc(C(F)(F)F)cc1` it is > 26 µM (inactive). `C=C[C@H](CC(C)C)N(Cc1ccccc1)S(=O)(=O)N(Cc1ccccc1)[C@@H](C=C)CC(C)C`: the AC50 is > 26 µM (inactive). For `c1ccc(/N=C2\N=C(Nc3ccccn3)c3ccccc32)nc1`, the AC50 is > 26 µM (inactive). As to `Cc1ccc(C(=O)N2N=C(c3ccc(Br)cc3)CC2c2ccccc2O)cc1` (stereo not given), the AC50 was > 26 µM (inactive).

For `CCSCCc1nnc(NC(=O)Nc2cccc(C(F)(F)F)c2)s1`, the AC50 is > 26 µM (inactive). The figure for `O=C1/C(=N\S(=O)(=O)c2cccs2)C([n+]2ccc(CCCc3ccccc3)cc2)=C([O-])c2ccccc21` is > 12 µM (inactive). As to `O=C(Cc1ccccc1)N/N=C/c1ccc([N+](=O)[O-])s1`, the AC50 was > 26 µM (inactive). In the case of `N#CC(C#N)=C1C=CC=CN1/C(=C\c1ccco1)C(=O)c1ccc(Br)cc1`, the AC50 is > 26 µM (inactive). `C=CCc1cccc(/C=N/NC(=O)CCC(=O)Nc2ccc(F)cc2)c1O`: the AC50 is > 26 µM (inactive). For `Cc1cccc2sc(NNC(=O)c3ccc(S(=O)(=O)N4CCc5ccccc5C4)cc3)nc12`, the AC50 was > 26 µM (inactive). The figure for `C/C(=N\NC(=O)c1cc(-c2cccs2)nc2ccccc12)c1ccccn1` is > 26 µM (inactive); for `CS(=O)(=O)N(CC(=O)Nc1ccc(CC#N)cc1)c1ccc(C23CC4CC(CC(C4)C2)C3)cc1` it is > 26 µM (inactive). `C/C(=N\Nc1nc(-c2ccccn2)nc2ccccc12)c1ccc(F)cc1`: the AC50 was > 26 µM (inactive).

For `Cc1ccc(NS(=O)(=O)c2ccc(NC(=O)CN(c3cc([N+](=O)[O-])ccc3C)S(C)(=O)=O)cc2)c(C)c1`, the AC50 was > 26 µM (inactive). For `O=C(Nc1ccc(-c2csc(Nc3cccc(C(F)(F)F)c3)n2)cc1)c1cc([N+](=O)[O-])cc(C(F)(F)F)c1`, the AC50 is > 26 µM (inactive).

Regarding `Cc1ccc2c(c1)Sc1c(ccc3ccccc13)N2`, the AC50 is > 26 µM (inactive). The figure for `COc1ccc(CC(=O)Nc2cccc(-c3nnc(-c4cccc(C)c4)o3)c2)cc1OC` is > 26 µM (inactive).

Consider `Cc1c(C(C)C)c(=O)n(-c2ccc(S(=O)(=O)NCc3ccccc3)cc2)n1C`, for which the AC50 is > 26 µM (inactive). Regarding `Cc1ccc(C)c(N=Nc2ccc(O)c3ncccc23)c1`, the AC50 was > 26 µM (inactive). In the case of `CC1CCC/C=C/C2CC(O)CC2C(O)/C=C/C(=O)O1` (stereo not given), the AC50 is > 26 µM (inactive).

In the case of `COc1ccc(C(=O)N/N=C(\C)c2ccccn2)cc1OC`, the AC50 is > 26 µM (inactive). `COc1ccccc1NCC(=O)N/N=C/c1c(O)ccc2ccccc12`: the AC50 is > 26 µM (inactive). The figure for `Cc1ncc(CO)c(/C=N/Nc2ccc(C(F)(F)F)cn2)c1O` is > 26 µM (inactive); for `Cn1nc(C(C)(C)C)cc1C(=O)NCc1ccc2c(c1)OCO2` it is > 26 µM (inactive); for `NC(=S)N/N=C/c1c(O)ccc2ccccc12` it is > 26 µM (inactive).

On to `COc1ccc(Cl)c(Cn2c(NCc3ccco3)nc3c2c(=O)n(C)c(=O)n3C)c1`, for which the AC50 is > 26 µM (inactive). In the case of `COc1ccc(NS(=O)(=O)c2ccc(-c3cnc(C4CC4)o3)cc2)cc1OC`, the AC50 is > 26 µM (inactive). As for `CCc1ccc(-c2cc(C(F)(F)F)n3nc(C(=O)Nc4cnn(Cc5ccc(C)cc5)c4)cc3n2)s1`, the AC50 was > 26 µM (inactive). Take `CCOC(=O)c1c(C)[nH]c(C)c1C(=O)CSc1nc2ccccc2c(=O)n1-c1ccc(CC)cc1`: the AC50 was > 26 µM (inactive). As for `CCC(CO)Oc1cc(NCc2ccc(C(C)(C)C)cc2)c2ncn(C(C)C)c2c1` (stereo not given), the AC50 is > 26 µM (inactive). For `CCOc1cccc(/C=N/Nc2ccc(S(=O)(=O)N(CC)CC)cn2)c1O`, the AC50 was > 26 µM (inactive). With `Cc1cc(Br)cc(/C=N/NC(=O)c2ccc3c(c2)OCO3)c1O`, the AC50 is > 26 µM (inactive). For the molecule `COc1ccc(CCNc2ncnc3sc(C)cc23)cc1OC`, the AC50 was > 26 µM (inactive). For the molecule `O=C(Nc1ccc([N+](=O)[O-])cc1)Nc1ccc(Cl)cc1F`, the AC50 was > 26 µM (inactive).

For `O=C(NNC(=O)c1ccccc1OCc1ccc(F)cc1)c1ccccc1O`, the AC50 is > 26 µM (inactive). Consider `O=C(/C(=C/c1cccc(Cl)c1)c1nc2ccccc2[nH]1)c1ccccc1`, for which the AC50 is > 26 µM (inactive). Regarding `NC1=NC[C@H](Cc2ccccc2)N1CCCCC1CCCCC1`, the AC50 was > 26 µM (inactive). For the molecule `O=C(Nc1ccc(OC(F)(F)F)cc1)Nc1cccc([N+](=O)[O-])c1`, the AC50 is > 26 µM (inactive).

As for `CCOC(=O)c1ccc(NC(=O)c2cccnc2)cc1`, the AC50 was > 26 µM (inactive).

Turning to `CCCCCc1ccc(OCCCC[n+]2ccc(C)cc2)c(CCCCC)c1`, the AC50 is > 26 µM (inactive). Regarding `CC1=CC(=O)C(C(C)C)=C/C1=N/OS(=O)(=O)c1ccccc1`, the AC50 is > 26 µM (inactive). Take `O=C(Nc1cccnc1)c1ccc([N+](=O)[O-])s1`: the AC50 is > 26 µM (inactive). The figure for `CCCCNc1c(-c2ccc(SC3CCCCC3)cc2)nc2ccccn12` is > 26 µM (inactive); for `COc1ccc(CCNc2ncnc3sccc23)cc1OC` it is > 26 µM (inactive). As to `CCN(CC)S(=O)(=O)c1cccc(NC(=O)c2cc(-c3cccs3)nn2-c2ccccc2)c1`, the AC50 is > 26 µM (inactive). Regarding `COc1ccc(-c2nc(-c3ccccn3)no2)cc1`, the AC50 was > 26 µM (inactive).

With `C=CCn1cc(/C=C/c2cc[n+](C)cc2)c2ccccc21`, the AC50 is > 26 µM (inactive). For the molecule `c1ccc(N2CCN(c3nc(-c4ccccn4)nc4ccccc34)CC2)cc1`, the AC50 was > 26 µM (inactive). The figure for `COc1cccc(/C=N/Nc2ccnc(=O)[nH]2)c1O` is > 26 µM (inactive); for `CCN(CC)S(=O)(=O)c1cccc(NC(=O)CNc2cccc(S(=O)(=O)N3CCCC3)c2)c1` it is > 26 µM (inactive). As for `Clc1ccc(OCCN2CCN(c3ncnc4sccc34)CC2)cc1`, the AC50 was > 26 µM (inactive). The figure for `Cc1cc(C)cc(OCCCn2ccnc2)c1` is > 26 µM (inactive); for `CN1C2CCC1/C(=C/c1ccccn1)C(=O)/C2=C\c1ccccn1` it is > 26 µM (inactive); for `O=C1c2ccc3c4c(ccc(c24)C(=O)N1c1cccc(O)c1)C(=O)N(c1cccc(O)c1)C3=O` it is > 26 µM (inactive).
